Article PMC9101188, “Human α-Defensin-6 Neutralizes Clostridioides difficile Toxins TcdA and TcdB by Direct Binding” (International Journal of Molecular Sciences, 2022)

Key:
[1] = tested on: TcdB autoprotease domain; assay: In vitro autoprocessing of TcdB (InsP6-induced autoprotease activity); assay type: biochemical, C. difficile VPI 10463; conditions: TcdB 2 µg, InsP6 1 mM; α-def-6 3 µM, 9 µM; 1 h, 37 °C, pH 7.4; SDS-PAGE, Coomassie (n = 2)
Protocol: The flow rate was 25 µL/min. […] A representative gel is shown (n = 2). […] GAPDH served as the loading control. A representative Western blot is shown.
The effects of α-def-6 on TcdB autoprocessing by its intrinsic cysteine protease activity were analyzed. […] Inositol hexakisphosphate (1 mM, Santa Cruz Biotechnology, Dallas, TX, USA) was added to the samples to induce autoprocessing. N-Ethylmaleimide (1 mM, Sigma Aldrich by Merck KGaA, Darmstadt, Germany) served as positive control for the inhibition of TcdB-autoprocessing. The reactions were stopped by addition of a Laemmli buffer and heat denaturation (95 °C). For the analysis, the samples were electrophoresed on 8% SDS polyacrylamide gels, and proteins were visualized by Coomassie staining.

[2] = tested on: Vero cells; assay: Aggregation of TcdB-DL488 and cell morphology in Vero cells; assay type: cell-based, African green monkey; conditions: TcdB-DL488 22 nM + α-def-6 6 µM, 0.5 h, 37 °C (n = 2)
Protocol: Cells were fixed and permeabilized. […] Scale bars correspond to 50 µm. […] TcdB was detected.
Cells were grown in their respective media under humidified conditions at 37 °C and 5% CO2. Vero cells (African green monkey kidney cells; DSMZ, Braunschweig, Germany) were maintained in Gibco minimum essential medium (MEM; Thermo Fisher Scientific, Waltham, MA, USA) supplemented with 10% fetal calf serum (FCS; Thermo Fisher Scientific, Waltham, MA, USA), 1 mM sodium pyruvate (Thermo Fisher Scientific, Waltham, MA, USA), 2 mM L-glutamine (PAN-Biotech, Aidenbach, Germany), 0.1 mM non-essential amino acids (Thermo Fisher Scientific, Waltham, MA, USA) and 100 U/mL penicillin and 100 µg/mL streptomycin (both Thermo Fisher Scientific, Waltham, MA, USA). CaCo-2 cells (human epithelial colorectal adenocarcinoma cells, HTB-37; ATCC, Manassas, VA, USA) were cultured in Gibco Dulbecco’s Modified Eagle Medium (DMEM; Thermo Fisher Scientific, Waltham, MA, USA) plus 10% FCS, 1 mM sodium pyruvate, 0.1 mM non-essential amino acids and 100 U/mL penicillin and 100 µg/mL streptomycin.
Simultaneously the same volume of PBS was exposed to DyLight^TM 488 NHS-Ester to serve as a negative control in experiments. To remove free fluorescence dye, the samples were rebuffered by passing through Zeba^TM Spin Desalting Columns via centrifugation. […]

[3] = tested on: Vero cells; assay type: cell-based, African green monkey
[4] = tested on: Rac1; assay type: cell-based, African green monkey
[5] = tested on: CaCo-2 monolayer; assay type: cell-based, human
[6] = tested on: CaCo-2 monolayer; assay type: cell-based, human; remark: listed apart in the source
[7] = tested on: TcdB; conditions: SPR, 2400 RUs biotinylated TcdB on streptavidin chip; α-def-6 0.1 to 6 µM; 10 mM HEPES, 150 mM NaCl, 50 µM EDTA, 0.005% Tween 20, pH 7.0; 25 µL/min, 25 °C; 4 min injection
Protocol: (A) 2400 RUs of biotinylated TcdB were immobilized via streptavidin-biotin binding onto a streptavidin sensor chip, and α-def-6 (concentrations as indicated) was applied to the chip for 4 min followed by a dissociation phase with a flow of running buffer. A solution of 6 µM of α-def-6 was injected twice to assess reproducibility, and β-def-1 (6 µM) served as a control. The flow rate was 25 µL/min.
TcdB was biotinylated via EZ-Link^TM Sulfo-NHS-Biotin (Thermo Fisher Scientific, Waltham, MA, USA) according to the manufacturer’s protocol. Briefly, TcdB was incubated with Sulfo-NHS-Biotin for 30 min at room temperature (RT). To remove the excess non-reacted biotin, TcdB was rebuffered with a Zeba^TM Spin Desalting Column (Thermo Fisher Scientific, Waltham, MA, USA). The successful biotinylation was verified via Western blotting and detection with peroxidase-conjugated streptavidin (1:2500, F. Hoffmann-La Roche AG, Basel, Switzerland).
The binding of α-def-6 to biotinylated TcdB was analyzed via surface plasmon resonance spectroscopy (SPR) with a Reichert SPR7500DC SPR spectrometer (Reichert Technologies, Buffalo, NY, USA). All analytes were dialyzed in running buffer (10 mM HEPES, 150 mM NaCl, 50 µM EDTA, 0.005% (v/v) Tween®20, pH 7.0) beforehand. Experiments were performed with a flow rate of 25 µL/min at 25 °C. […]

[8] = tested on: CaCo-2 cells
[9] = tested on: CaCo-2 cells; remark: listed apart in the source
[10] = tested on: zebrafish embryos; conditions: in vivo

## CC[C@H](C)[C@@H]1NC(=O)CNC(=O)[C@H](CCSC)NC(=O)[C@H](C(C)C)NC(=O)[C@H]([C@@H](C)O)NC(=O)[C@@H]2CSSC[C@@H]3NC(=O)[C@H](Cc4c[nH]cn4)NC(=O)[C@@H](NC(=O)[C@@H](NC(=O)[C@H](Cc4ccccc4)NC(=O)[C@H](C)N)[C@@H](C)O)CSSC[C@@H](C(=O)N[C@@H](CC(C)C)C(=O)O)NC(=O)[C@H](CSSC[C@H](NC(=O)[C@H](CO)NC(=O)[C@H](CCCNC(=N)N)NC(=O)[C@H](CCCNC(=N)N)NC3=O)C(=O)N[C@@H](Cc3ccc(O)cc3)C(=O)N[C@@H](CO)C(=O)N[C@@H]([C@@H](C)O)C(=O)N[C@@H](CCC(=O)O)C(=O)N[C@@H](Cc3ccc(O)cc3)C(=O)N[C@@H](CO)C(=O)N[C@@H](Cc3ccc(O)cc3)C(=O)NCC(=O)N[C@@H]([C@@H](C)O)C(=O)N2)NC(=O)[C@H](Cc2ccccc2)NC(=O)[C@H](CCCNC(=N)N)NC(=O)[C@H](Cc2c[nH]cn2)NC(=O)[C@H](CC(N)=O)NC1=O [α-def-6]
[1]
  release of the glucosyltransferase domain by the autoprotease domain (effect of substance): not affected
[2]
  morphological changes of TcdB-DL488-treated cells: no morphological changes
  toxin-defensin aggregates in the presence of cells: toxin-defensins-aggregates were also visible
[3]
  inhibition of toxin effects on cells, TcdA + TcdB: clear inhibition
  protection of cells against TcdA + TcdB: clear protection
[4]
  glucosylation of Rac1 by TcdB: clearly less Rac1 was glucosylated
[5]
  TEER, TcdA: clear delay in TEER-reduction
[6]
  TEER, TcdA + TcdB: clear delay in TEER-reduction
[7]
  interaction with immobilized TcdB: direct, concentration-dependent interaction
[8]
  amount of rounded CaCo-2 cells, TcdA: reduced amount of rounded CaCo-2 cells was visible for at least 6 h
[9]
  amount of rounded CaCo-2 cells, TcdA + TcdB: reduced amount of rounded CaCo-2 cells was visible for at least 6 h
[10]
  effect on TcdB-induced cytotoxicity and cardiotoxicity: very efficiently reversed both the cytotoxic and cardiotoxic effects of TcdB
  toxicity of α-def-6 alone: did not show any toxicity
